Experimental data: patent publication US10851116B2, “Bicyclic amines as novel JAK kinase inhibitors” (LEO Pharma A/S, priority 2017, dated 2020)

How the values were obtained:
Type in all cases: biochemical
JAK1 = JAK1 (Homo sapiens (Human), UniProt P23458); assay: JAK kinase assay (HTRF), JAK1; conditions: catalytic domain (aa 850-1154), GST-tag, ATP at Km (7 μM)
Procedure: (§1) Human baculovirus-expressed JAK1, 2, 3 and TYK2 were purchased from Carna Biosciences, Inc. All four purified enzymes contain only the catalytic domain. JAK1 (aa 850-1154) and TYK2 (aa 871-1187) are expressed with an N-terminally fused GST-tag, and JAK2 and JAK3 with an N-terminally fused His-tag.
(§2) Inhibition of phosphorylation of a synthetic peptide was measured in an HTRF-based assay using the TK substrate-Biotin from the Cisbio HTRFKinEASE TK kit. First, 2 μl of TK solution (TK substrate-biotin in kinase buffer [1× enzymatic buffer from HTRFKinEASE TK kit, 1 mM DTT]) is added to a plate containing 1 μl prediluted compound (final assay concentration DMSO: 0.75%). Then, 5 μl kinase-ATP mix (prepared in kinase buffer) is added to the wells and the plates are incubated at RT for 20-30 min. For all four kinases a concentration of ATP that corresponded to the Km for ATP was used. The final concentrations of buffers, substrate, kinase and ATP were: JAK1: 50 mM Hepes buffer pH 7.0, 0.01% BSA, 10 mM MgCl2, 1 mM DTT, 7 μM ATP, 50 nM SEB, 1 μM TK Substrate-Biotin and 5 ng JAK1; JAK2: 50 mM Hepes buffer pH 7.0, 0.01% BSA, 5 mM MgCl2, 1 mM DTT, 4 μM ATP, 1 μM TK Substrate-Biotin and 0.1 ng JAK2; JAK3: 50 mM Hepes buffer pH 7.0, 0.01% BSA, 5 mM MgCl2, 1 mM DTT, 2 μM ATP, 1 μM TK Substrate-Biotin and 0.3 ng JAK3; TYK2: 50 mM Hepes buffer pH 7.0, 0.01% BSA, 5 mM MgCl2, 1 mM DTT, 13 μM ATP, 50 nM SEB, 1 μM TK Substrate-Biotin and 0.8 ng TYK2. Thereafter, the kinase reaction is stopped by adding 4 μl detection mix (final concentrations: 50 mM Hepes buffer pH 7.0, 0.01% BSA, 0.8 M KF, 20 mM EDTA, 42 nM Streptavidin-XL665 and 1:400 STK Ab Cryptate) and the plates are incubated overnight in the dark. The HTRF signal is read using an Envision plate reader.

JAK2 = JAK2 (Homo sapiens (Human), UniProt O60674); assay: JAK kinase assay (HTRF), JAK2; conditions: catalytic domain, His-tag, ATP at Km (4 μM)
Procedure: as §1, §2

JAK3 = JAK3 (Homo sapiens (Human), UniProt P52333); assay: JAK kinase assay (HTRF), JAK3; conditions: catalytic domain, His-tag, ATP at Km (2 μM)
Procedure: as §1, §2

TYK2 = TYK2 (Homo sapiens (Human), UniProt P29597); assay: JAK kinase assay (HTRF), TYK2; conditions: catalytic domain (aa 871-1187), GST-tag, ATP at Km (13 μM)
Procedure: as §1, §2

JAK1, sequence (P23458 850-1154): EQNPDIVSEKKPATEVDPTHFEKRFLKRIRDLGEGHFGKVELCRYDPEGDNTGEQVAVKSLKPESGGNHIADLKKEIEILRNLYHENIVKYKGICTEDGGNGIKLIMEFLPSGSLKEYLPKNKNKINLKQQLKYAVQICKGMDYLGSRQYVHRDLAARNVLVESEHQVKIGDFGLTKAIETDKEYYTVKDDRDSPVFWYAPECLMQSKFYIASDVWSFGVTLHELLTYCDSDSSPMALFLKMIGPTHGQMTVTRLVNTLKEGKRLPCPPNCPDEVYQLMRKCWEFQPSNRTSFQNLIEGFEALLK
JAK3, sequence (P52333 822-1111): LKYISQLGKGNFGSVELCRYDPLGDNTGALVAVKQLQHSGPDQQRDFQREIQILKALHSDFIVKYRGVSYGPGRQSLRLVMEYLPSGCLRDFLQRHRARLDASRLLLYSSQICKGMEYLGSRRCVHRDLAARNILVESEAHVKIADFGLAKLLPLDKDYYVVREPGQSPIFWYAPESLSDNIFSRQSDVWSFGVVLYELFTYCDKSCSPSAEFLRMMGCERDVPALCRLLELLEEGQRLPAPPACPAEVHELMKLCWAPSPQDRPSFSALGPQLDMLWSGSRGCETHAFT
TYK2, sequence (P29597 871-1187): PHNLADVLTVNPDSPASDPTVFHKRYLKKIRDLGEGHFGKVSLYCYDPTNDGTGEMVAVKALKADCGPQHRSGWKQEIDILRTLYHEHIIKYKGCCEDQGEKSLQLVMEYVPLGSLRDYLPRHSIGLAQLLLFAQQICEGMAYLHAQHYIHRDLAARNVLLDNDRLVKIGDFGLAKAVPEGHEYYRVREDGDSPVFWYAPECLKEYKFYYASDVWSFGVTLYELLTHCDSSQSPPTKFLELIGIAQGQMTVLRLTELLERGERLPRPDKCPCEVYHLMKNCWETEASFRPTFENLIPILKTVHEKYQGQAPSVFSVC
JAK2, sequence (O60674 849-1124): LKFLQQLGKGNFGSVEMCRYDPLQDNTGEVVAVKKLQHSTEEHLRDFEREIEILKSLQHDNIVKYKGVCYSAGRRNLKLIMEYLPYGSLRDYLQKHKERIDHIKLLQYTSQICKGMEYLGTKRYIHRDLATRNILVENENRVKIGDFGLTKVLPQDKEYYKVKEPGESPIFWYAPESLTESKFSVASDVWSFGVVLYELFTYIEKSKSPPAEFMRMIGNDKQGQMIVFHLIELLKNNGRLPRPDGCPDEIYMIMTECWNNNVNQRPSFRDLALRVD

Compound | EC50 (JAK1) [nM] | EC50 (JAK2) [nM] | EC50 (JAK3) [nM] | EC50 (TYK2) [nM]
Cc1nc(N2C[C@H]3CCN(c4ncnc5[nH]ccc45)C[C@@]3(C)C2)ccc1C#N (racemic) [Example 45, 6-[(3aR*,7aS*)-3a-methyl-5-(7H-pyrrolo[2,3-d]pyrimidin-4-yl)-1,3,4,6,7,7a-hexahydropyrrolo[3,4-c]pyridin-2-yl]-2-methyl-pyridine-3-carbonitrile] | 30 | 103 | 120 | 1190
C[C@]12CN(C(=O)C3(C#N)CCCC3)C[C@H]1CCN(c1ncnc3[nH]ccc13)C2 (racemic) [Example 46, 1-[(3aS*,7aS*)-3a-methyl-5-(7H-pyrrolo[2,3-d]pyrimidin-4-yl)-1,3,4,6,7,7a-hexahydropyrrolo[3,4-c]pyridine-2-carbonyl]cyclopentanecarbonitrile] | 97 | 625 | 705 | 1510
CC[C@]12CN(C(C)=O)CC[C@H]1CCN(c1ncnc3[nH]ccc13)C2 (relative stereo) [Example 15, 1-[(4aR*,8aS*)-8a-ethyl-7-(7H-pyrrolo[2,3-d]pyrimidin-4-yl)-3,4,4a,5,6,8-hexahydro-1H-2,7-naphthyridin-2-yl]ethanone] | 121 | 453 | 69 | 1040
CC[C@]12CN(c3nc(C#N)cs3)CC[C@H]1CCN(c1ncnc3[nH]ccc13)C2 (relative stereo) [Example 25, 2-[(4aR*,8aS*)-8a-ethyl-7-(7H-pyrrolo[2,3-d]pyrimidin-4-yl)-3,4,4a,5,6,8-hexahydro-1H-2,7-naphthyridin-2-yl]thiazole-4-carbonitrile] | 46 | 139 | 29 | 1110
CC[C@]12CN(c3ncnc4[nH]ccc34)CC[C@H]1CCN(S(N)(=O)=O)C2 [Example 19, (4aS,8aR)-8a-ethyl-7-(7H-pyrrolo[2,3-d]pyrimidin-4-yl)-3,4,4a,5,6,8-hexahydro-1H-2,7-naphthyridine-2-sulfonamide] | 146 | 208 | 151 | 1880
CC[C@@]12CN(C#N)CC[C@@H]1CCN(c1ncnc3[nH]ccc13)C2 [Example 21, (4aS,8aR)-8a-ethyl-7-(7H-pyrrolo[2,3-d]pyrimidin-4-yl)-3,4,4a,5,6,8-hexahydro-1H-2,7-naphthyridine-2-carbonitrile] | 80 | 187 | 578 | 988
C[C@@]12CN(C#N)C[C@@H]1CCN(c1ncnc3[nH]ccc13)C2 [Example 28, (3aR,7aR)-3a-methyl-5-(7H-pyrrolo[2,3-d]pyrimidin-4-yl)-1,3,4,6,7,7a-hexahydropyrrolo[3,4-c]pyridine-2-carbonitrile] | 240 | 827 | 2180 | 2470
CCC12CNCCC1CCN(c1ncnc3[nH]ccc13)C2 (centres unmarked) [Intermediate 10, 8a-ethyl-7-(7H-pyrrolo[2,3-d]pyrimidin-4-yl)-1,2,3,4,4a,5,6,8-octahydro-2,7-naphthyridine] | 16 | 25 | 157 | 1980
